Measured values published in patent publication US8735150B2, “Methods for detecting embryonic stem cells, induced pluripotent stem cells, or cells undergoing reprogramming to produce induced pluripotent stem cells” (New York University, priority 2010, dated 2014).

Assays:
iPSC = test: CDy1 staining of iPSC colonies generated from Oct4-GFP transgenic mouse MEF; type: cell-based
Procedure: The retroviral packaging cell, PlatE cell, was maintained in DMEM containing 10% FBS, 100 U/ml penicillin, 100 μg/ml streptomycin, 10 μg/mlblasticidin S, and 1 μg/ml puromycin. For the generation of retroviruses, 40 μg of each retroviral vector expressing each mouse Oct4, Sox2, Klf4, and c-Myc was transfected together using Lipofectamine™ 2000 (Invitrogen, Carlsbad, Calif.) into PlatE cells plated at a density of 8×10^6 cells/10 cm cell culture dish and cultured overnight in DMEM containing 10% FBS. Medium was changed five hours after transfection to normal maintenance medium and incubated further in a humidified atmosphere of 5% CO2 and 95% air at 37° C. Culture supernatant was harvested 48 hours after transfection, filtered through a 0.45 μm syringe filter, concentrated by using amicon ultra-15 Centrifugal filter units (Millipore, Billerica, Mass.), and stored at −80° C. until use. For reprogramming, MEFs prepared from E13.5 B6; CBA-Tg(Pou5f1-EGFP)2Mnn/J mouse (Jackson Laboratory, Bar Harbor, Me.) embryo were infected with retrovirus mixture eight hours later. Polybrene (Sigma-Aldrich, St. Louis, Mo.) was added at a concentration of 10 μg/ml to increase virus adsorption. Infected MEFs were harvested 48 hours later by trypsinization and plated onto mytomycin C treated MEF feeder cells. The cells were maintained in mESC culture medium that was changed every day until designated time points.
The reprogramming was performed in a 6-well culture dish by retroviral introduction of four transcriptions factors: Oct4, Sox2, Klf4, and c-Myc (Takahashi et al., “Induction of Pluripotent Stem Cells from Mouse Embryonic and Adult Fibroblast Cultures by Defined Factors,” Cell, 126(4):663-676 (2006), which is hereby incorporated by reference in its entirety). iPSC generation was verified by GFP expression, alkaline phosphatase assay, and immunostaining of SSEA-1 at 17 days post infection (“dpi”). […] When the 155 colonies grown in 6-well plate cells were treated with CDy1 at 17 dpi, 101 colonies (65%) were both CDy1 and GFP positive, 26 (17%) were CDy1-only positive, 4 (3%) were GFP-only positive and 24 (15%) were negative both for CDy1 and GFP, despite the fact that the morphology of the colonies was indistinguishable (FIG. 9).
In a cell culture treated with CDy1 at an earlier time point of iPSC generation (10 dpi), increasing numbers of CDy1-stained colonies started to show GFP signal during the following days (FIG. 10A). To perform a more systematic analysis, the cells were stained with CDy1 at 2 dpi (i.e., when iPSC was not distinguishable by any means) and the CDy1 and GFP signals were tracked by daily acquisition of cell images using an ImageXpress^MICRO system. At 10 dpi, when small colonies started to appear, 342 CDy1-positive but GFP-negative colonies were selected and their GFP expression was followed until 25 dpi. An increasing number of colonies started to express GFP during this period, and 338 (99%) out of the 342 tracked colonies were GFP-positive at 25 dpi (FIG. 10B).

human ESC (hESC) (BG01V) = test: Comparison of CDy1 and ALDEFLUOR staining in hESC; type: cell-based; conditions: fluorescence microscopy
Procedure: In this experiment, the cells cultured on 6-well plates were incubated with 1 μM ALDEFLUOR® for one hour at 37° C. and then washed with PBS three times before ALDEFLUOR® assay buffer was added. Bright field (“B.F”) and fluorescence (FITC filter for ALDEFLUOR® and TRITC filter for CDy1) images were taken using a Nikon ECLIPSE Ti fluorescence microscope (Scale bars, 100 μm).
BG01V cells cultured on MEF were selectively stained by CDy1. The expression of hESC marker TRA-1-60 in the CDy1-stained BG01V cells was detected by immunofluorescence staining (Scale bar, 100 μm).
Among the few fluorescent dyes used for stem cell staining (Zijlmans et al., “Modification of Rhodamine Staining Allows Identification of Hematopoietic Stem Cells with Preferential Short-term or Long-term Bone Marrow-Repopulating Ability,” Proc. Natl. Acad. Sci. USA, 92:8901-8905 (1995), which is hereby incorporated by reference in its entirety) is ALDEFLUOR® which employs a fluorescent substrate BODIPY-aminoacetaldehyde for aldehyde dehydrogenase (ALDH)1A1 (Storms et al., “Isolation of Primitive Human Hematopoietic Progenitors on the Basis of Aldehyde Dehydrogenase Activity,” Proc. Natl. Acad. Sci. USA, 96: 9118-9123 (1999), which is hereby incorporated by reference in its entirety). […]

[1] = system: Oct4-GFP transgenic MEF transfected with Oct4, Sox2, Klf4 and c-Myc; test: CDy1 staining of cells at early stages of reprogramming (fluorescence microscopy); type: cell-based, mouse; conditions: incubated for one hour
Procedure: Oct4-GFP transgenic MEF transfected with retrovirus expressing Oct4, Sox2, Klf4, and c-Myc were incubated with CDy1 at 3, 5, 7, and 9 dpi for one hour.
After excess CDy1 was washed out by replacing culture medium, fluorescent cell images were taken using fluorescence microscope.
At 3 and 5 dpi, any dramatic morphological differences between the cells were not observed by phase contrast bright field microscopy (FIG. 16).

Structure (SMILES): CCCCN(CCCC)c1ccc2c(-c3cccc(CN4CCOCC4)c3)c3ccc(=N)cc-3oc2c1 [CDy1]
- selective staining of iPSC colony (iPSC; 17 dpi): selectively stained the iPSC colony
- colonies CDy1-only positive (number) (iPSC; 17 dpi, of 155 colonies): 26
- colonies CDy1-only positive (percent) (iPSC; 17 dpi, of 155 colonies): 17%
- colonies GFP-only positive (number) (iPSC; 17 dpi, of 155 colonies): 4
- colonies GFP-only positive (percent) (iPSC; 17 dpi, of 155 colonies): 3%
- colonies both CDy1 and GFP positive (number) (iPSC; 17 dpi, of 155 colonies): 101
- colonies both CDy1 and GFP positive (percent) (iPSC; 17 dpi, of 155 colonies): 65%
- colonies negative both for CDy1 and GFP (number) (iPSC; 17 dpi, of 155 colonies): 24
- colonies negative both for CDy1 and GFP (percent) (iPSC; 17 dpi, of 155 colonies): 15%
- colonies GFP-positive at 25 dpi (percent) (iPSC; of 342 CDy1-positive but GFP-negative colonies selected at 10 dpi): 99%
- colonies GFP-positive at 25 dpi (number) (iPSC; of 342 CDy1-positive but GFP-negative colonies selected at 10 dpi, stained at 2 dpi): 338
- staining of hESC (human ESC (hESC) (BG01V)): stained both
- staining at 3 and 5 dpi [1]: scattered single cells stained
- staining at 7 and 9 dpi [1]: some of the clusters were stained
